Measured values taken from ChEMBL document CHEMBL3045400, “Synthesis of novel triazole derivatives as potent inhibitor of allene oxide synthase (CYP74A), a key enzyme in jasmonic acid biosynthesis” (J Pestic Sci, 2012).

Biological target: T1, Allene oxide synthase, chloroplastic (Arabidopsis thaliana, UniProt Q96242)
T1 sequence (Q96242 whole entry): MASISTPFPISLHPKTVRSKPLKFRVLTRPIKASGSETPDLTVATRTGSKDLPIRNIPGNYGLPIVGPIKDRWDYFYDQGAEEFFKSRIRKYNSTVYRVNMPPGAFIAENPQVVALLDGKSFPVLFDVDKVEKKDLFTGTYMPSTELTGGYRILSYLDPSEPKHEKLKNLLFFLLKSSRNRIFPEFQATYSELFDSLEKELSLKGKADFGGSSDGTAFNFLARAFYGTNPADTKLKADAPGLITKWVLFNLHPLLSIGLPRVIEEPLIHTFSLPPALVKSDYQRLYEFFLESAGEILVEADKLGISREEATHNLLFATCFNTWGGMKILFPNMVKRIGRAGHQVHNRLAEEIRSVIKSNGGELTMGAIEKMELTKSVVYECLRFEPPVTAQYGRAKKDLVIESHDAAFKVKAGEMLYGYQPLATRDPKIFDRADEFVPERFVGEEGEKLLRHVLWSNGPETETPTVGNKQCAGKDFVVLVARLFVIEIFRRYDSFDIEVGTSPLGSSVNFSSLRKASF
Assay: Inhibition of recombinant Arabidopsis thaliana allene oxide synthase activity by spectrophotometry

IC50 [nM] | SMILES
1200 | COC(=O)CCCCCCCOC(Cn1cncn1)c1ccc(Cl)cc1 (stereo unspecified)
1600 | COC(=O)CCCCCCCOC(Cn1cncn1)c1ccccc1 (stereo unspecified)
14500 | COC(=O)CCCCCCCOC(Cn1cncn1)c1ccc(F)cc1 (stereo unspecified)
2600 | COC(=O)CCCCCCCOC(Cn1cncn1)c1ccc(OC)cc1 (stereo unspecified)
930 | COC(=O)CCCCCCCOC(Cn1cncn1)c1ccc(Cl)c(Cl)c1 (stereo unspecified)

The next lines start with the compound.

SMILES | IC50 [nM]
COC(=O)CCCCCCCOC(Cn1cncn1)c1ccc(Cl)cc1Cl (stereo unspecified) | 840
COC(=O)CCCCCCCOC(Cn1cncn1)c1ccc(-c2ccccc2)cc1 (stereo unspecified) | 54300
CCCCCCCOC(=O)CCCCCCCOC(Cn1ccnc1)c1ccc(Cl)cc1Cl (stereo unspecified) | 10
COC(=O)CCCCCCCOC(Cn1ccnc1)c1ccc(Cl)cc1Cl (stereo unspecified) | 850
COC(=O)CCCCCCCOC(Cn1cncn1)c1ccc2ccccc2c1 (stereo unspecified) | 750
COC(=O)CCCCCCCOC(Cn1cncn1)c1cccc(OC)c1 (stereo unspecified) | 22500
